Where “and” joins values, the source holds several entries; their conditions need not be identical. Equal entries are not always repeated. Bridge positions count the residues as written; N and C are the ends. Square brackets hold non-standard residues; d marks the D form. Peptide text beside a SMILES is read from it. * marks the point of attachment. X1 = CC[C@H](C)CCCCC(=O)*; Dab = NCC[C@H](N)C(=O)O
Columns and labels:
K. pneumoniae = settings: ref Landersdorfer et al., 2018, cited from earlier work
Experimental: Monte Carlo simulations were conducted for the probability of target attainment (PTA) analysis to guide the selection of optimal dosage regimens. Different dosage regimens were simulated by the PPK model and AUCss,24h were calculated. […] The maximal reductions in colony f ... || FIGURE 4 Probability of target attainment for different dosage regimens of polymyxin B against common carbapenem-resistant organisms according to PK/PD simulations. (A) Loading dose for three bacterial species. […] In preclinical studies, the fAUC/MIC required for various magnitudes of bacterial killing varied among bacterial strains and infection sites. […] Against P. aeruginosa and A. b ... || (+ 2 further places)

[1] = Safety (adverse events, renal function) in BSI patients; type: in vivo, human
Experimental: (§1) The definition of different population groups for safety and efficacy analysis is shown in Supplementary Table S2. Briefly, safety was evaluated based on adverse events (AEs) in patients who received at least one polymyxin B dose. Adverse events were recorded based on patient self-reporting as well as abnormal laboratory test results including serum chemistry and routine blood and urinary testing. Acute kidney injury (AKI) was graded according to the RIFLE criteria ([Bellomo et al., 2004]). The primary endpoint was culture-confirmed bacterial eradication of CRKP from the blood evaluated by blood cultures taken every 3 days following the first dose of polymyxin B administration. Secondary endpoints were clinical outcome (clinical cure or improvement, Supplementary Table S3) evaluated in patients who received at least 3 days of polymyxin B treatment, and 28-day all-cause mortality evaluated in patients who completed 14 days of polymyxin B treatment.

[2] = cited from earlier work
Excerpt: Nephrotoxicity following intravenous administration of polymyxin B may occur in up to ∼30% of patients and constitutes the major dose-limiting factor with polymyxin therapy ([Ouderkirk et al., 2003]; [Sobieszczyk et al., 2004]; [Phe et al., 2014]; [Oliota et al., 2019]). The inability to substantially increase the daily dose of polymyxins may lead to suboptimal dosing which compromises efficacy and increases the likelihood of resistance emerging ([Zavascki et al., 2007]; [Rigatto et al., 2014]). In the present study, no pathological factors affecting renal function were present in any of the p ...

[3] = 24 critically ill patients, 0.45–3.38 mg/kg/day, no loading dose, ref Sandri et al., 2013, cited from earlier work
Experimental: A good understanding of the PK of polymyxin B is essential for optimizing its clinical use. A previous population PK study examining the use of polymyxin B (0.45–3.38 mg/kg/day) in 24 critically ill patients reported an AUCss,24h of 66.9 ± 21.6 mg h/L (range, 16.4–117 mg h/L) and Css,avg of 2.79 ± 0.90 mg/L; no loading dose was administered ([Sandri et al., 2013]).

[4] = system: carbapenem-resistant K. pneumoniae (CRKP) bloodstream infections; assay: Microbiological and clinical efficacy in CRKP bloodstream infection; type: in vivo, human; settings: for Microbiological efficacy: blood culture; for Clinical efficacy: evaluated when the subject withdrew or completed the study; for 28-day survival: 14 days of treatment
Experimental: This prospective, multi-centered, single-armed and open-label clinical trial was conducted in accordance with Good Clinical Practice, International Conference on Harmonization guidelines, and in compliance with the World Medical Association Declaration of Helsinki and was approved by the Ethics Committee of Sir Run Run Shaw Hospital, College of Medicine, Zhejiang University, Hangzhou, China, and other participating centers ([Williams, 2008]). Written informed consent was obtained from each patient or his/her representative before enrollment. Patients with CRKP-positive blood cultures and with an estimated glomerular filtration rate (eGFR) of 60–120 ml/min were included. The inclusion and exclusion criteria are shown in Supplementary Table S1. This clinical trial was registered at http://www.chictr.org.cn (registration number: ChiCTR 1900021137) and was conducted across 2019 and 2020.
as §1

[5] = cited from earlier work; remark: listed apart in the source
Experimental: Monte Carlo simulations were conducted for the probability of target attainment (PTA) analysis to guide the selection of optimal dosage regimens. Different dosage regimens were simulated by the PPK model and AUCss,24h were calculated. […] The maximal reductions in colony f ... || FIGURE 4 Probability of target attainment for different dosage regimens of polymyxin B against common carbapenem-resistant organisms according to PK/PD simulations. (A) Loading dose for three bacterial species. […] Or gani s m Dose Dosing MIC (mg/L) (m g/ k g) frequen c y 0.25 0.5 1 2 4 8 2 Loading 100.0 100.0 99.6 40.5 0 0 2.5 dose 100.0 100.0 100.0 71.0 2.0 0 Klebsiella 0.5 100.0 99.7 40.5 0.2 0 0 pneum oniae 0.75 Maintenance 100.0 100.0 90.6 11.0 0 0 1.0 dose, q12h 10 ...

[6] = nine patients, 2.5 mg/kg loading, 1.25 mg/kg/12 h iv

CC[C@H](C)CCCCC(=O)N[C@@H](CCN)C(=O)N[C@H](C(=O)N[C@@H](CCN)C(=O)N[C@H]1CCNC(=O)[C@H]([C@@H](C)O)NC(=O)[C@H](CCN)NC(=O)[C@H](CCN)NC(=O)[C@H](CC(C)C)NC(=O)[C@@H](Cc2ccccc2)NC(=O)[C@H](CCN)NC1=O)[C@@H](C)O [polymyxin B] (X1-[Dab]T[Dab][Dab][Dab][dF]L[Dab][Dab]T; lactam 4-C)
fAUC24h/MIC target (K. pneumoniae; 1-log10 reduction against K. pneumoniae, murine thigh infection): 17.4
target values of fAUC/MIC (K. pneumoniae; 1 log10 kill, mouse thigh infection, three strains of K. pneumoniae): 3.7–28.0
2 log10 kill (K. pneumoniae; mouse thigh infection, three strains of K. pneumoniae): 2 log10 kill could not be achieved with even the highest tolerated dose
incidence of polymyxin B-induced AKI (RIFLE criteria) ([1]; 5/9 patients): 55.6%
patients with at least one of neurotoxicity, nephrotoxicity, hyperpigmentation ([1]; 8/9 patients): 88.9%
abdominal pain ([1]; during polymyxin B treatment, all patients): no abdominal pain was reported by any patient
Hyperpigmentation, patients [1, 6]: 1/9
Nephrotoxicity, patients [1, 6]: 5/9
Neurotoxicity, patients [1, 6]: 5/9
Study completion per protocol (Withdrawal reasons) ([1]; patient 1, treatment duration 6 days): Withdraw (AKI)
Study completion per protocol (Withdrawal reasons) ([1]; patient 2, treatment duration 6 days): Withdraw (AKI)
Study completion per protocol (Withdrawal reasons) ([1]; patient 3, treatment duration 14 days): Yes
Study completion per protocol (Withdrawal reasons) ([1]; patient 4, treatment duration 1 day (loading dose only)): Withdraw (pruritus and numbness on face and head, ataxia)
Study completion per protocol (Withdrawal reasons) ([1]; patient 5, treatment duration 5 days): Withdraw (AKI, pruritus and numbness on face and head, ataxia)
Study completion per protocol (Withdrawal reasons) ([1]; patient 6, treatment duration 14 days): Yes
Study completion per protocol (Withdrawal reasons) ([1]; patient 7, treatment duration 14 days): Yes
Study completion per protocol (Withdrawal reasons) ([1]; patient 8, treatment duration 4 days): Withdraw (AKI, pruritus and numbness on face and head, ataxia)
Study completion per protocol (Withdrawal reasons) ([1]; patient 9, treatment duration 14 days): Yes
neurotoxicity among conscious patients ([1]; seven conscious patients (two sedated)): Five of seven and 5 of 7
incidence of nephrotoxicity reported previously ([2]; ref Oliota et al., 2019): 29.8%
incidence of polymyxin B-associated nephrotoxicity (RIFLE criteria) ([2]; ref Phe et al., 2014): 23.1%
patients with nephrotoxicity following intravenous administration ([2]; up to, ref Ouderkirk et al., 2003, Sobieszczyk et al., 2004, Phe et al., 2014, Oliota et al., 2019): ~30%
AUCss,24h ([3]; mean ± SD, SD): 66900 ± 21600 ng·h/mL
Css,avg ([3]; mean ± SD, SD): 2790 ± 900 ng/mL
AUCss,24h, range [3]: 16400 to 117000 ng·h/mL
patients alive 28 days after the commencement of therapy ([4]; 4 patients who completed the 14-day treatment protocol): all 4
clinical cure or improvement ([4]; 6/8 patients): 75%
time to negative blood cultures after commencing therapy ([4]; all 8 patients evaluated for microbiological efficacy): ≤ 3 days
Microbiological efficacy ([4]; patient 1): Eradication
Clinical efficacy ([4]; patient 1): Not improved
Microbiological efficacy ([4]; patient 2): Eradication
Clinical efficacy ([4]; patient 2): Improved
28-day survival ([4]; patient 3): Yes
Microbiological efficacy ([4]; patient 3): Eradication
Clinical efficacy ([4]; patient 3): Cure
Microbiological efficacy ([4]; patient 5): Eradication
Clinical efficacy ([4]; patient 5): Improved
28-day survival ([4]; patient 6): Yes
Microbiological efficacy ([4]; patient 6): Eradication
Clinical efficacy ([4]; patient 6): Cure
28-day survival ([4]; patient 7): Yes
Microbiological efficacy ([4]; patient 7): Eradication
Clinical efficacy ([4]; patient 7): Cure
Microbiological efficacy ([4]; patient 8): Eradication
Clinical efficacy ([4]; patient 8): Improved
28-day survival ([4]; patient 9): Yes
Microbiological efficacy ([4]; patient 9): Eradication
Clinical efficacy ([4]; patient 9): Failure
clinical cure or improvement ([4]; patients evaluated for efficacy (n = 8)): 6 of 8
unbound fraction in plasma ([5]; as used in PK/PD simulations, given as fraction): 0.42
unbound fraction (f) in human plasma ([5]; human plasma, ref Sandri et al., 2013): 42%

Source: article PMC9800617, “Pharmacokinetics/pharmacodynamics of polymyxin B in patients with bloodstream infection caused by carbapenem-resistant Klebsiella pneumoniae” (Frontiers in Pharmacology, 2022)
